Measured values taken from patent US12448394B2, “Heterocyclic pyrazole derivatives as type III receptor tyrosine kinase inhibitors” (DEVELOPMENT CENTER FOR BIOTECHNOLOGY, priority 2019, dated 2025).

Key:
MET kinase = target: T1, MET kinase (Homo sapiens, UniProt P08581); experiment: MET kinase assay (AlphaScreen, counter screen); format: biochemical; settings: read-out: Ranking of IC50 values, MET
T1 construct: purchased SignalChem
In short: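 Recombinant MET kinase (1 ng) phosphorylated biotinylated poly(Glu4:Tyr1) with […] ATP (so in the source) in MOPS pH 7.0 buffer with 10 mM MgCl2, 45 min at 30 °C, stopped with EDTA. Product read by AlphaScreen; IC50 from serial dilutions run in duplicate.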

[1] = test system: Molm-14 human acute myeloid leukemia cell with FLT3-ITD mutation; experiment: Molm-14 cell proliferation assay (CellTiter 96); format: cell-based; settings: Homo sapiens; Molm-14 cells, 72 hours treatment, CellTiter96; read-out: anti-proliferation activity Molm-14 (FLT3-ITD), IC50 ranking
In short: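 Molm-14 (FLT3-ITD AML) cells in RPMI 1640 with 10% heat-inactivated FBS were seeded at 25000 cells/well, incubated overnight at 37° C, 5% CO2, then treated with increasing compound concentrations for 72 hours. Viability was read as absorbance at 490 nm after 2˜4 hours with CellTiter96 AQueous One reagent.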

[2] = test system: THP-1 human acute monocytic leukemia cell with NRAS G12D mutation; experiment: THP-1 cell proliferation assay (counter screen); format: cell-based; settings: Homo sapiens, THP-1 cells, 72 hours treatment, CellTiter96, read-out: anti-proliferation activity THP-1 NRAS N12D, IC50 ranking
In short: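 THP-1 cells (NRAS G12D, growth independent of class III RTK signaling) seeded at 5000 cells/well overnight, then exposed to increasing compound concentrations for 72 h at 37° C, 5% CO2. Viability read by CellTiter96 AQueous One reagent (2–4 h) as absorbance at 490 nm.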

[3] = test system: A375 melanoma cell with BRAF V600E mutation; experiment: A375 cell proliferation assay (counter screen); format: cell-based, human; settings: Homo sapiens, A-375, A375 cells, 72 hours treatment, CellTiter96, read-out: anti-proliferation activity A375 BRAF V600E, IC50 ranking
In short: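 A375 cells (BRAF V600E) seeded at 2000 cells/well in DMEM with 10% FBS, settled overnight at 37° C, 5% CO2, then exposed to increasing compound concentrations for 72 hours. Viability read by MTS-type CellTiter96 AQueous reagent, absorbance at 490 nm after 2–4 hours.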

[4] = test system: HCC827 NSCLC cell with EGFR exon 19 deletion mutation; experiment: HCC827 cell proliferation assay (counter screen); format: cell-based, human; settings: Homo sapiens, HCC827 cells, 72 hours treatment, CellTiter96, read-out: anti-proliferation activity HCC827 EGFR Exon19 del, IC50 ranking
In short: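 HCC827 cells (EGFR exon 19 deletion) were seeded at 8000 cells/well in RPMI1640 with 10% FBS, then exposed to increasing compound concentrations for 72 h at 37 °C. Viability was read by CellTiter96 AQueous One (MTS), absorbance 490 nm after 2–4 h.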

[5] = test system: phosphorylation of FLT3 and its down-stream effector STAT5; experiment: Western blotting of p-FLT3 and p-STAT5 in MV4-11 cells; format: cell-based; settings: Homo sapiens; at 30 nM treatment, 3 hours, FLT3-ITD positive MV4-11 leukemia cells; read-out: inhibition activity against phosphorylation of FLT3 and its down-stream effector STAT5
Procedure: The potent compounds of formula (I) in EXAMPLE 2 were evaluated, by western blotting assay, for their cellular potencies against phosphorylation of FLT3 and its down-stream effector STAT5 in MV4-11 leukemia cell line with constitutive activation of FLT3 signaling. For western blotting experiments, MV4-11 cells were cultured in IMDM medium containing 0.1% FBS overnight. On the assay day, three million cells were treated with or without compounds for 3 hours in 15 mL tubes. Then, the whole cell lysates were harvested, following extraction by adding 2×SDS Sample Buffer and boiling on hot plate at 105° C. for 15 minutes. The resulting cell lysates were separated by SDS-PAGE electrophoresis and transferred to PVDF membrane. Protein expression was detected using immunoblot with corresponding primary antibody and secondary antibody following the standard procedures. Antibody against p-FLT3 (Tyr-591), anti-rabbit IgG HRP-linked secondary antibody, and anti-mouse IgG HRP-linked secondary antibody were purchased from Cell Signaling Technology. Antibody against p-STAT5 (Tyr-694) was purchased from BD biosciences. Antibody against actin was purchased from R&D system. […] Band intensities of western blot were also quantified by ChemiDoc™ MP Imaging System. Relative intensities of bandscorresponding to drug treatments at a single concentration (30 nM) were compared to the DMSO control group. The percentage (%) inhibition at each drug concentration was calculated using the formula: Percentage(%)inhibition=(1−Relative intensity)×100.

T1 sequence (P08581 25-1390): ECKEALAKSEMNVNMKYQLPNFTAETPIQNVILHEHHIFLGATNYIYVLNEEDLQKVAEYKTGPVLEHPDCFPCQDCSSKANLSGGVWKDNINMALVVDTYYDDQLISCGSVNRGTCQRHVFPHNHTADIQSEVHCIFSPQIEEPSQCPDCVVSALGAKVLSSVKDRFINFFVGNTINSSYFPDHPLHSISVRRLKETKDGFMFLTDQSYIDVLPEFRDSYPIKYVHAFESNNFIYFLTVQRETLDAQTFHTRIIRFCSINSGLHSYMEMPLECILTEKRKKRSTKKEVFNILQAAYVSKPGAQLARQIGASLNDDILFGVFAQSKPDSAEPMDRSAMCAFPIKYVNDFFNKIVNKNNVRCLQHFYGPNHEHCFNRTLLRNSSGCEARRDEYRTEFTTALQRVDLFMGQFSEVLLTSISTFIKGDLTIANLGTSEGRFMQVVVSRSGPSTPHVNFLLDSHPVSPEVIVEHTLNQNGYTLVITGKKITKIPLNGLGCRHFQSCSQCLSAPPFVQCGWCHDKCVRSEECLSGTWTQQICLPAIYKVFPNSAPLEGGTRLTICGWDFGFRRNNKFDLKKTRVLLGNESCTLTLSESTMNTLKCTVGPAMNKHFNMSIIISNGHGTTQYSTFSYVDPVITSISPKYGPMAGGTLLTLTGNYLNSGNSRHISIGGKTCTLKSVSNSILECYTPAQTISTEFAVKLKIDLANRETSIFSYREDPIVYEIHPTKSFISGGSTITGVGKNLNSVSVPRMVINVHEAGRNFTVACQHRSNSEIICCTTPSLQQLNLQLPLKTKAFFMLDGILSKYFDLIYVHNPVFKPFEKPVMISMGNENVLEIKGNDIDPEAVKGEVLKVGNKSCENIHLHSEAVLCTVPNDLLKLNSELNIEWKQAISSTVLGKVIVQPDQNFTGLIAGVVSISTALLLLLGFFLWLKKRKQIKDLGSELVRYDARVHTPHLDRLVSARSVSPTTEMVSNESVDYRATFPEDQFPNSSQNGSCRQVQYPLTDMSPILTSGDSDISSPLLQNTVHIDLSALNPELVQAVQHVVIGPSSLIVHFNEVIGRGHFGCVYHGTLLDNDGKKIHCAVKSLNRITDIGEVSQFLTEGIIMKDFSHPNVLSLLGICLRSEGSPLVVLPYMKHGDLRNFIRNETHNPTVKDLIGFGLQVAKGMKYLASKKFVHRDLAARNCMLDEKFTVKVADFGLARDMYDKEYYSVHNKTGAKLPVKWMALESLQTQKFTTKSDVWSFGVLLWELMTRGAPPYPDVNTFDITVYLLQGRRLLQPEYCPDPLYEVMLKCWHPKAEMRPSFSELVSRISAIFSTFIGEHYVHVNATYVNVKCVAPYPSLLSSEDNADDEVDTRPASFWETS

| SMILES | IC50 (MET kinase) | IC50 [1] | IC50 [2] | IC50 [3] | IC50 [4] | inhibition at 0.03 µM [5] |
| --- | --- | --- | --- | --- | --- | --- |
| CC1C(=O)N(C)CCN1Cc1ccc(-c2cc3c(s2)Cc2c(-c4ccc5cnn(C)c5c4)n[nH]c2-3)cc1 (stereo not drawn) [Compound 65, 1,3-dimethyl-4-(4-(3-(1-methyl-1H-indazol-6-yl)-1,4-dihydrothieno [2′,3′:4,5]cyclopenta [1,2-c]pyrazol-6-yl)benzyl)piperazin-2-one] | > 1 µM | < 0.03 µM | > 10 µM | > 10 µM | > 10 µM | > 50% |
| Cn1ncc2ccc(-c3n[nH]c4c3Cc3sc(-c5cc(C(=O)N6CCOCC6)ccn5)cc3-4)cc21 [Compound 56, (2-(3-(1-methyl-1H-indazol-6-yl)-1,4-dihydro-thieno[2′,3′:4,5]cyclopenta [1,2-c]pyrazol-6-yl)pyridin-4-yl)(morpholino) methanone] | > 1 µM | 0.03 to 0.1 µM | > 10 µM | > 10 µM | > 10 µM | > 50% |
| C[C@@H]1CN(Cc2ccc(-c3cc4c(s3)Cc3c(-c5ccc6cn[nH]c6c5)n[nH]c3-4)cc2)C[C@H](C)O1 [Compound 7, (2S,6R)-4-(4-(3-(1H-indazol-6-yl)-1,4-dihydrothieno[2′,3′:4,5]cyclopenta [1,2-c]pyrazol-6-yl)benzyl)-2,6-dimethylmorpholine] | > 1 µM | < 0.03 µM | > 10 µM | > 10 µM | > 10 µM | > 50% |
| COc1cc(CN2CCOCC2)ccc1-c1cc2c(s1)Cc1c(-c3ccc4cnn(C)c4c3)n[nH]c1-2 [Compound 29, 4-(3-methoxy-4-(3-(1-methyl-1H-indazol-6-yl)-1,4-dihydrothieno [2′,3′:4,5]cyclopenta[1,2-c]pyrazol-6-yl)benzyl) morpholine] | > 1 µM | 0.03 to 0.1 µM | > 10 µM | > 10 µM | > 10 µM | > 50% |
| Cn1cc(-c2cc3c(s2)Cc2c(-c4ccc5cnn(C)c5c4)n[nH]c2-3)cc1C(=O)N1CCOCC1 [Compound 46, (1-methyl-4-(3-(1-methyl-1H-indazol-6-yl)-1,4-dihydrothieno[2′,3′:4,5]cyclopenta[1,2-c]pyrazol-6-yl)-1H-pyrrol-2-yl) (morpholino)methanone] | > 1 µM | < 0.03 µM | > 10 µM | > 10 µM | > 10 µM | > 50% |
| Cn1ncc2ccc(-c3n[nH]c4c3Cc3sc(-c5ccc(CN6CCCC6=O)cc5)cc3-4)cc21 [Compound 64, 1-(4-(3-(1-methyl-1H-indazol-6-yl)-1,4-dihydro-thieno[2′,3′:4,5]cyclopenta [1,2-c]pyrazol-6-yl)benzyl)pyrrolidin-2-one] | > 1 µM | < 0.03 µM | > 10 µM | > 10 µM | > 10 µM | > 50% |
| Cn1ncc2ccc(-c3n[nH]c4c3Cc3sc(-c5ccc(OCCN6CCOCC6)cc5)cc3-4)cc21 [Compound 69, 4-(2-(4-(3-(1-methyl-1H-indazol-6-yl)-1,4-dihydro-thieno[2′,3′:4,5]cyclopenta [1,2-c]pyrazol-6-yl)phenoxy)ethyl)morpholine] | > 1 µM | 0.03 to 0.1 µM | > 10 µM | > 10 µM | > 10 µM | > 50% |
| Cn1ncc2ccc(-c3n[nH]c4c3Cc3sc(-c5cncc(C(=O)N6CCOCC6)c5)cc3-4)cc21 [Compound 31, (5-(3-(1-methyl-1H-indazol-6-yl)-1,4-dihydrothieno[2′,3′:4,5]cyclopenta[1,2-c]pyrazol-6-yl)pyridin-3-yl) (morpholino)methanone] | > 1 µM | < 0.03 µM | 1 to 10 µM | 1 to 10 µM | 1 to 10 µM | > 50% |

Second part, led by results:

| IC50 (MET kinase) | IC50 [1] | SMILES | IC50 [2] | IC50 [3] | IC50 [4] | inhibition at 0.03 µM [5] |
| --- | --- | --- | --- | --- | --- | --- |
| > 1 µM | < 0.03 µM | C[C@@H]1CN(C(=O)c2ccc(-c3cc4c(s3)Cc3c(-c5ccc6cnn(C)c6c5)n[nH]c3-4)cc2)C[C@H](C)O1 [Compound 19, ((2S,6R)-2,6-dimethyl-morpholino)(4-(3-(1-methyl-1H-indazol-6-yl)-1,4-dihydrothieno[2′,3′:4,5]cyclopenta[1,2-c]pyrazol-6-yl)phenyl)methanone] | > 10 µM | > 10 µM | > 10 µM | > 50% |
| > 1 µM | 0.03 to 0.1 µM | CN(C)S(=O)(=O)c1ccc(-c2cc3c(s2)Cc2c(-c4ccc5cnn(C)c5c4)n[nH]c2-3)cc1 [Compound 50, N,N-dimethyl-4-(3-(1-methyl-1H-indazol-6-yl)-1,4-dihydrothieno [2′,3′:4,5]cyclopenta [1,2-c]pyrazol-6-yl) benzenesulfonamide] | > 10 µM | > 10 µM | > 10 µM | > 50% |
| > 1 µM | 0.1 to 0.3 µM | Cn1ncc2ccc(-c3n[nH]c4c3Cc3sc(-c5ccc(NC6CCOCC6)cc5)cc3-4)cc21 [Compound 72, N-(4-(3-(1-methyl-1H-indazol-6-yl)-1,4-dihydro-thieno[2′,3′:4,5]cyclopenta [1,2-c]pyrazol-6-yl)phenyl)tetrahydro-2H-pyran-4-amine] | > 10 µM | > 10 µM | > 10 µM | > 50% |
| > 1 µM | < 0.03 µM | Cn1ncc2ccc(-c3n[nH]c4c3Cc3sc(C5CCNCC5)cc3-4)cc21 [Compound 96, 3-(1-methyl-1H-indazol-6-yl)-6-(piperidin-4-yl)-1,4-dihydrothieno [2′,3′:4,5]cyclopenta [1,2-c]pyrazole] | 0.3 to 1 µM | 1 to 10 µM | 1 to 10 µM | > 50% |
| > 1 µM | < 0.03 µM | Cn1ncc2ccc(-c3n[nH]c4c3Cc3sc(N5CCOCC5=O)cc3-4)cc21 [Compound 79, 4-(3-(1-methyl-1H-indazol-6-yl)-1,4-dihydro-thieno[2′,3′:4,5]cyclopenta [1,2-c]pyrazol-6-yl) morpholin-3-one] | > 10 µM | 1 to 10 µM | 1 to 10 µM | > 50% |
| > 1 µM | 0.03 to 0.1 µM | CC(c1ccc(-c2cc3c(s2)Cc2c(-c4ccc5cnn(C)c5c4)n[nH]c2-3)cc1)N1CCOCC1 (stereo not drawn) [Compound 20, 4-(1-(4-(3-(1-methyl-1H-indazol-6-yl)-1,4-dihydro-thieno[2′,3′:4,5]cyclopenta [1,2-c]pyrazol-6-yl)phenyl)ethyl)morpholine] | > 10 µM | > 10 µM | > 10 µM | > 50% |
| 0.3 to 1 µM | < 0.03 µM | COC1CN(Cc2ccc(-c3cc4c(s3)Cc3c(-c5ccc6cnn(C)c6c5)n[nH]c3-4)cc2)C1 [Compound 105, 6-(4-((3-methoxyazeti-din-1-yl)methyl)phenyl)-3-(1-methyl-1H-indazol-6-yl)-1,4-dihydrothieno [2′,3′:4,5]cyclopenta [1,2-c]pyrazole] | > 10 µM | > 10 µM | > 10 µM | > 50% |
